Patent US5045458A, “Antibiotics PB-6042S” (Shionogi & Co., Ltd., priority 1988, dated 1991)
≈ marks a conversion by molar mass, not a printed value. Where two headings read alike, the source gives them in different places.

How the values were obtained:
[1] = tested on: P. asaccharolyticus ATCC14963; assay: MIC against anaerobic bacteria; assay type: cell-based; settings: Peptoniphilus asaccharolyticus
P. anaerobius B-38 = assay: MIC against anaerobic bacteria; assay type: cell-based; settings: Peptostreptococcus anaerobius, B38
P. prevotii ATCC9321 = assay: MIC against anaerobic bacteria; assay type: cell-based; settings: Anaerococcus prevotii
P. micros VPI5464-1 = assay: MIC against anaerobic bacteria; assay type: cell-based; settings: Parvimonas micra, VPI54641
[2] = tested on: S. constellatus ATCC27823; assay: MIC against anaerobic bacteria; assay type: cell-based; settings: Streptococcus constellatus
E. lentum II-1 = assay: MIC against anaerobic bacteria; assay type: cell-based; settings: Eggerthella lenta, II1
E. limosum ATCC8486 = assay: MIC against anaerobic bacteria; assay type: cell-based; settings: Eubacterium limosum
E. aerofaciens ATCC25986 = assay: MIC against anaerobic bacteria; assay type: cell-based; settings: Collinsella aerofaciens
P. acens ATCC11827 = assay: MIC against anaerobic bacteria; assay type: cell-based
B. adolescentis JCM1250 = assay: MIC against anaerobic bacteria; assay type: cell-based; settings: Bifidobacterium adolescentis; B. adolescentis JCM1250; read-out: MIC
B. bifidum JCM1122 = assay: MIC against anaerobic bacteria; assay type: cell-based; settings: Bifidobacterium bifidum; B. bifidum JCM1122; read-out: MIC
B. longum ATCC15707 = assay: MIC against anaerobic bacteria; assay type: cell-based; settings: Bifidobacterium longum, ATCC15707
L. plantarum JCM1100 = assay: MIC against anaerobic bacteria; assay type: cell-based; settings: Lactiplantibacillus plantarum; L. plantarum JCM1100; read-out: MIC
L. ruminis ATCC27780 = assay: MIC against anaerobic bacteria; assay type: cell-based
C. perfringens SAKAI = assay: microbe, parasite or virus in culture; assay type: cell-based; settings: Clostridium perfringens
C. perfringens ATCC13124 = assay: microbe, parasite or virus in culture; assay type: cell-based; settings: Clostridium perfringens
C. difficile ATCC17857 = assay: MIC against anaerobic bacteria; assay type: cell-based; settings: Clostridioides difficile
B. fragilis GM7000 = assay: MIC against anaerobic bacteria; assay type: cell-based; settings: Bacteroides fragilis
B. fragilis ATCC25285 = assay: MIC against anaerobic bacteria; assay type: cell-based; settings: Bacteroides fragilis
[3] = tested on: B. thetaiotaomicron WAL3304; assay: MIC against anaerobic bacteria; assay type: cell-based; settings: Bacteroides thetaiotaomicron
B. vulgatus ATCC29327 = assay: MIC against anaerobic bacteria; assay type: cell-based; settings: Phocaeicola vulgatus
B. distasonis JU-11-1 = assay: MIC against anaerobic bacteria; assay type: cell-based; settings: Parabacteroides distasonis, JU111
B. ovatus 2505 = assay: MIC against anaerobic bacteria; assay type: cell-based; settings: Bacteroides ovatus
[4] = tested on: B. melaninogenicus GAI0413; assay: MIC against anaerobic bacteria; assay type: cell-based; settings: B. melaninogenicus GAI0413; read-out: MIC
F. varium ATCC8501 = assay: MIC against anaerobic bacteria; assay type: cell-based; settings: Fusobacterium varium
F. necrophorum ATCC25286 = assay: MIC against anaerobic bacteria; assay type: cell-based; settings: Fusobacterium necrophorum
F. nucleatum ATCC25586 = assay: MIC against anaerobic bacteria; assay type: cell-based; settings: Fusobacterium nucleatum
F. mortiferum ATCC9817 = assay: MIC against anaerobic bacteria; assay type: cell-based; settings: Fusobacterium mortiferum; F. mortiferum ATCC9817; read-out: MIC
anaerobic bacteria = assay: antibacterial activity against anaerobic bacteria (summary); assay type: cell-based; settings: in words
[5] = filter paper electrophoresis and bioautography (acidic property); assay type: physicochemical
Text: Other physicochemical properties of PB-6042s in the form of sodium salt are listed below.

S. aureus FDA JC-1 = assay: MIC against aerobic bacteria; settings: Staphylococcus aureus, FDAJC1
S. aureus SR14(R) = assay: MIC against aerobic bacteria; settings: Staphylococcus aureus
S. pyogenes C-203 = assay: MIC against aerobic bacteria; settings: Streptococcus pyogenes, C203
S. pneumoniae TYPE 1 = assay: MIC against aerobic bacteria; settings: Streptococcus pneumoniae, TYPE1
E. coli NIHJ JC-2 = assay: MIC against aerobic bacteria; settings: Escherichia coli, NIHJJC2
K. pneumoniae SR1 = assay: MIC against aerobic bacteria; settings: Klebsiella pneumoniae
P. vulgaris CN-329 = assay: MIC against aerobic bacteria; settings: Proteus vulgaris, CN329
P. aeruginosa A25619 = assay: MIC against aerobic bacteria; settings: Pseudomonas aeruginosa
V. parvula ATCC10790 = assay: MIC against anaerobic bacteria; assay type: cell-based; settings: Veillonella parvula
[6] = antibacterial activity and acidic property of reduced PB-6042A: antibacterial activity; assay type: cell-based; settings: after H2/PtO2 reduction
[7] = acidic property of reduced PB-6042A; settings: after H2/PtO2 reduction

| SMILES | MIC (P. anaerobius B-38) [mg/L] | MIC (P. micros VPI5464-1) [mg/L] | MIC [2] [mg/L] | MIC (E. lentum II-1) [mg/L] | MIC (P. acens ATCC11827) [mg/L] | MIC (B. adolescentis JCM1250) [mg/L] | MIC (B. bifidum JCM1122) [mg/L] | MIC (B. longum ATCC15707) [mg/L] | MIC (L. plantarum JCM1100) [mg/L] | MIC (C. perfringens SAKAI) [mg/L] | MIC (C. perfringens ATCC13124) [mg/L] | MIC (C. difficile ATCC17857) [mg/L] | MIC [4] [mg/L] | MIC (F. varium ATCC8501) [mg/L] | MIC (F. nucleatum ATCC25586) [mg/L] | MIC (F. mortiferum ATCC9817) [mg/L] | growth inhibition of anaerobic bacteria (anaerobic bacteria) | acidic property [5] | MIC (S. aureus FDA JC-1) [mg/L] | MIC (S. aureus SR14(R)) [mg/L] | further results |
| --- | --- | --- | --- | --- | --- | --- | --- | --- | --- | --- | --- | --- | --- | --- | --- | --- | --- | --- | --- | --- | --- |
| C=C1OC(=O)C(C(=O)CCCCCCCCCCC)=C1O [PB-6042C] | 0.78 (≈ 2.65 µM) | 0.78 (≈ 2.65 µM) | 0.78 (≈ 2.65 µM) | 3.13 (≈ 10.6 µM) | 0.78 (≈ 2.65 µM) | 0.78 (≈ 2.65 µM) | 6.25 (≈ 21.2 µM) | 3.13 (≈ 10.6 µM) | 6.25 (≈ 21.2 µM) | 3.13 (≈ 10.6 µM) | 3.13 (≈ 10.6 µM) | 0.78 (≈ 2.65 µM) | 6.25 (≈ 21.2 µM) | > 100 | 12.5 (≈ 42.5 µM) | 25 (≈ 84.9 µM) | inhibit the growth of anaerobic bacteria, selectively | acidic substances | > 100 | > 100 | MIC ([1]; ATCC14963): 3.13 mg/L (≈ 10.6 µM); MIC (P. prevotii ATCC9321; ATCC9321): 3.13 mg/L (≈ 10.6 µM); MIC (E. limosum ATCC8486; E. limosum ATCC8486, read-out: MIC): 1.56 mg/L (≈ 5.3 µM); MIC (E. aerofaciens ATCC25986; ATCC25986): 3.13 mg/L (≈ 10.6 µM); MIC (L. ruminis ATCC27780; L. ruminis ATCC27780, read-out: MIC): 1.56 mg/L (≈ 5.3 µM); MIC (B. fragilis GM7000; GM7000): 3.13 mg/L (≈ 10.6 µM); MIC (B. fragilis ATCC25285; B. fragilis ATCC25285, read-out: MIC): 1.56 mg/L (≈ 5.3 µM); MIC ([3]; WAL3304): 3.13 mg/L (≈ 10.6 µM); MIC (B. vulgatus ATCC29327; ATCC29327): 3.13 mg/L (≈ 10.6 µM); MIC (B. distasonis JU-11-1): 3.13 mg/L (≈ 10.6 µM); MIC (B. ovatus 2505; 2505): 3.13 mg/L (≈ 10.6 µM); MIC (F. necrophorum ATCC25286): 12.5 mg/L (≈ 42.5 µM); MIC (S. pyogenes C-203): 12.5 mg/L (≈ 42.5 µM); MIC (S. pneumoniae TYPE 1): 12.5 mg/L (≈ 42.5 µM); MIC (E. coli NIHJ JC-2): > 100 mg/L; MIC (K. pneumoniae SR1): > 100 mg/L; MIC (P. vulgaris CN-329): > 100 mg/L; MIC (P. aeruginosa A25619): > 100 mg/L |
| C=C1OC(=O)C(C(=O)CCCC/C=C\CCCCCCC)=C1O [PB-6042D] | 1.56 (≈ 4.87 µM) | 0.78 (≈ 2.43 µM) | 1.56 (≈ 4.87 µM) | 3.13 (≈ 9.77 µM) | 1.56 (≈ 4.87 µM) | 6.25 (≈ 19.5 µM) | 6.25 (≈ 19.5 µM) | 3.13 (≈ 9.77 µM) | 6.25 (≈ 19.5 µM) | 3.13 (≈ 9.77 µM) | 3.13 (≈ 9.77 µM) | 1.56 (≈ 4.87 µM) | 12.5 (≈ 39 µM) | > 100 | 25 (≈ 78 µM) | > 100 | inhibit the growth of anaerobic bacteria, selectively | acidic substances | > 100 | 12.5 (≈ 39 µM) | MIC ([1]; P. asaccharolyticus ATCC14963, read-out: MIC): 6.25 mg/L (≈ 19.5 µM); MIC (P. prevotii ATCC9321; P. prevotii ATCC9321, read-out: MIC): 6.25 mg/L (≈ 19.5 µM); MIC (E. limosum ATCC8486; ATCC8486): 3.13 mg/L (≈ 9.77 µM); MIC (E. aerofaciens ATCC25986; E. aerofaciens ATCC25986, read-out: MIC): 6.25 mg/L (≈ 19.5 µM); MIC (L. ruminis ATCC27780): 3.13 mg/L (≈ 9.77 µM); MIC (V. parvula ATCC10790): > 100 mg/L; MIC (B. fragilis GM7000; B. fragilis GM7000, read-out: MIC): 6.25 mg/L (≈ 19.5 µM); MIC (B. fragilis ATCC25285; ATCC25285): 3.13 mg/L (≈ 9.77 µM); MIC ([3]; B. thetaiotaomicron WAL3304, read-out: MIC): 6.25 mg/L (≈ 19.5 µM); MIC (B. vulgatus ATCC29327; B. vulgatus ATCC29327, read-out: MIC): 12.5 mg/L (≈ 39 µM); MIC (B. distasonis JU-11-1; B. distasonis JU-11-1, read-out: MIC): 12.5 mg/L (≈ 39 µM); MIC (B. ovatus 2505; B. ovatus 2505, read-out: MIC): 12.5 mg/L (≈ 39 µM); MIC (S. pyogenes C-203): 12.5 mg/L (≈ 39 µM); MIC (S. pneumoniae TYPE 1): 12.5 mg/L (≈ 39 µM); MIC (E. coli NIHJ JC-2): > 100 mg/L; MIC (K. pneumoniae SR1): > 100 mg/L; MIC (P. vulgaris CN-329): > 100 mg/L; MIC (P. aeruginosa A25619): > 100 mg/L |
| CCCCCCCCCC(=O)C1=C(O)C(C)OC1=O (stereo not drawn) [reduced product] | – | – | – | – | – | – | – | – | – | – | – | – | – | – | – | – | – | – | – | – | antibacterial activity of reduced product [6]: maintained antibacterial activity; acidic property of reduced product [7]: maintained antibacterial activity and acidic property |
